PMC9455983 (International Journal of Molecular Sciences, 2022)
Like-named read-outs stand apart in the source and are kept apart here.

How the values were obtained:
[1] = target: T1, kappa-opioid receptor (KOR) (Cavia porcellus, UniProt P41144); test: KOR radioligand competition binding assay ([3H]U69,593); set-up: species or system guinea pig; conditions: Kappa screening results
T1 construct: Guinea pig cortices and cerebella were homogenized using 50 mM Tris, pH 7.4; from tissue; host or cells: guinea pig cortex and cerebellum membranes
Experimental: KOR binding assay: Guinea pig cortices and cerebella were homogenized using 50 mM Tris, pH 7.4, 10 mM MgCl2-6H2O, […] centrifuged and incubated as above. Each assay tube contained 2 nM [^3H]U69,593. Assay tubes were incubated for 2 h at 25 °C. Unlabeled U50,488 was used as a competitor to generate a standard curve and determine nonspecific binding.
(§1) All three binding assays were terminated by filtration through GF/B filters, soaked in 5 mg/mL bovine serum albumin, 50 mM Tris, pH 7.4, on a Tomtec Mach II Harvester 96. The filters were subsequently washed with 6 mL of assay buffer. Bound radioactivity was counted on a Wallac Betaplate Liquid Scintillation Counter. Experiments were conducted using two replicates and repeated twice. Values in Scheme 2 represent the mean ± SD of two experiments with two replicates in each test.

[2] = target: T2, delta-opioid receptor (DOR) (Rattus norvegicus, UniProt P33533); test: DOR radioligand competition binding assay ([3H]-DPDPE); conditions: Delta screening results
T2 construct: Rat cortices were homogenized using 50 mM Tris, pH 7.4, 10 mM MgCl2-6H2O, 200 µM PMSF; from tissue; host or cells: rat cortex membranes
Experimental: DOR binding assay: Rat cortices were homogenized using 50 mM Tris, pH 7.4, 10 mM MgCl2-6H2O, 200 µM PMSF, centrifuged and incubated as above. Each assay tube contained 2 nM [^3H]-DPDPE. Assay tubes were incubated for 2.5 h at 25 °C. Unlabeled DPDPE was used as a competitor to generate a standard curve and determine nonspecific binding.
as §1

[3] = target: T3, mu-opioid receptor (MOR) (Rattus norvegicus, UniProt P33535); test: MOR radioligand competition binding assay ([3H]-DAMGO); conditions: Mu screening results
T3 construct: Rat cortices were homogenized using 50 mM Tris, pH 7.4, and centrifuged at 16,500 rpm for 10 min; from tissue; host or cells: rat cortex membranes
Experimental: MOR binding assay: Rat cortices were homogenized using 50 mM Tris, pH 7.4, and centrifuged at 16,500 rpm for 10 min. The pellets were resuspended in fresh buffer and incubated at 37 °C for 30 min. Following incubation, the suspensions were centrifuged as before, the resulting pellets were resuspended in 100 volumes of 50 mM Tris, pH 7.4 plus 2 mg/mL bovine serum and the suspensions combined. Each assay tube contained 0.5 mL of membrane suspension, 2 nM [^3H]-DAMGO, and 0.02 mg/mL mixture in a total volume of 0.65 mL [13, 45, 53, 55].
as §1

[4] = experiment 1, unit inferred, read-out: Ki (Exp 1)
[5] = experiment 2, unit inferred, read-out: Ki (Exp 2)
[6] = mean of Exp 1 and Exp 2, unit inferred, read-out: MEAN (Ki)
[7] = mean of two experiments, read-out: Ki
[8] = first Ki column, unit not printed (apparently M), read-out: Ki (first column)
[9] = mean of both Ki, unit inferred, read-out: MEAN (Ki)
[10] = second Ki column, unit not printed (apparently M), read-out: Ki (second column)

SMILES | Ki [1, 4] [nM] | Ki [1, 5] [nM] | Ki [1, 6] [nM] | Ki [1, 7] [nM] | Ki [2, 8] [nM] | Ki [2, 9] [nM] | Ki [2, 7] [nM] | Ki [2, 10] [nM] | Ki [3, 4] [nM] | Ki [3, 5] [nM] | Ki [3, 6] [nM] | Ki [3, 7] [nM]
Cc1cc(O)cc(C)c1C[C@H]1CN([C@@H](CC(C)C)CN2C(=N)NC[C@@H]2Cc2c(C)cc(O)cc2C)C(=N)N1 [1968-60] | 308 | 422 | 365 | 365 | 978 | 814 | 814 | 651 | 66.4 | 71.2 | 68.8 | 69
C[C@H]1CNC(=N)N1C[C@H](Cc1ccccc1)N1C[C@H](Cc2ccc(O)cc2)NC1=N [1968-34] | 6520 | 9150 | 7830 | 7830 | 5140 | 6650 | 6650 | 8160 | 1480 | 1070 | 1280 | 1280
C[C@H]1CNC(=N)N1C[C@H](Cc1ccc(O)cc1)N1C[C@H](Cc2ccc(O)cc2)NC1=N [1968-38] | 1690 | 1960 | 1820 | 1820 | 4270 | 3800 | 3800 | 3330 | 174 | 195 | 184 | 184
Cc1cc(O)cc(C)c1C[C@H]1CNC(=N)N1C[C@H](Cc1ccccc1)N1C[C@H](CC(C)C)NC1=N [1968-51] | 872 | 639 | 755 | 755 | 2580 | 2550 | 2560 | 2530 | 126 | 162 | 144 | 144
Cc1cc(O)cc(C)c1C[C@H]1CNC(=N)N1C[C@H](Cc1ccccc1)N1C[C@H](Cc2ccccc2)NC1=N [1968-49] | 1230 | 1210 | 1220 | 1220 | 615 | 543 | 543 | 472 | 53.4 | 84.7 | 69.1 | 69
Cc1cc(O)cc(C)c1C[C@H]1CNC(=N)N1C[C@H](Cc1c(C)cc(O)cc1C)N1C[C@H](Cc2ccc(O)cc2)NC1=N [1968-62] | 2300 | 2340 | 2320 | 2320 | 1530 | 1280 | 1280 | 1020 | 64.2 | 78.4 | 71.3 | 71
Cc1cc(O)cc(C)c1C[C@H]1CN([C@@H](CC(C)C)CN2C(=N)NC[C@@H]2C)C(=N)N1 [1968-44] | 1830 | 1420 | 1630 | 1630 | 10200 | 7630 | 7630 | 5060 | 157 | 244 | 200 | 200
Cc1cc(O)cc(C)c1C[C@H]1CN([C@@H](CC(C)C)CN2C(=N)NC[C@@H]2Cc2ccccc2)C(=N)N1 [1968-12] | 1030 | 1290 | 1160 | 1160 | 1950 | 1850 | 1850 | 1750 | 67.4 | 65.9 | 66.6 | 67
N=C1NC[C@H](Cc2ccc(O)cc2)N1C[C@H](Cc1ccccc1)N1C[C@H](Cc2ccc(O)cc2)NC1=N [1968-18] | 3470 | 3630 | 3550 | 3550 | 7570 | 8080 | 8080 | 8580 | 403 | 401 | 402 | 402
Cc1cc(O)cc(C)c1C[C@H]1CN([C@@H](Cc2c(C)cc(O)cc2C)CN2C(=N)NC[C@@H]2Cc2ccc(O)cc2)C(=N)N1 [1968-32] | 1760 | 1480 | 1620 | 1620 | 469 | 488 | 488 | 507 | 106 | 134 | 120 | 120
N=C1NC[C@H](Cc2ccccc2)N1C[C@H](Cc1ccccc1)N1C[C@H](Cc2ccc(O)cc2)NC1=N [1968-2] | 5360 | 5570 | 5460 | 5460 | 6920 | 8100 | 8100 | 9280 | 135 | 142 | 139 | 139
Cc1cc(O)cc(C)c1C[C@@H](CN1C(=N)NC[C@@H]1Cc1ccc(O)cc1)N1C[C@H](Cc2ccccc2)NC1=N [1968-29] | 1450 | 1450 | 1450 | 1450 | 967 | 836 | 836 | 705 | 117 | 114 | 116 | 116
Cc1cc(O)cc(C)c1C[C@H]1CN([C@@H](Cc2c(C)cc(O)cc2C)CN2C(=N)NC[C@@H]2Cc2ccccc2)C(=N)N1 [1968-68] | 538 | 568 | 553 | 553 | 426 | 462 | 462 | 498 | 89.3 | 76.7 | 83 | 83
C[C@H]1CNC(=N)N1C[C@H](Cc1ccccc1)N1C[C@H](Cc2ccccc2)NC1=N [1968-33] | 16300 | 14100 | 15200 | 15200 | 16600 | 11300 | 11300 | 5950 | 4170 | 2540 | 3350 | 3360
Cc1cc(O)cc(C)c1C[C@H]1CN([C@@H](Cc2ccc(O)cc2)CN2C(=N)NC[C@@H]2Cc2c(C)cc(O)cc2C)C(=N)N1 [1968-56] | 736 | 1250 | 991 | 991 | 1330 | 1300 | 1300 | 1260 | 55 | 69.9 | 62.5 | 62
Cc1cc(O)cc(C)c1C[C@@H](CN1C(=N)NC[C@@H]1Cc1ccccc1)N1C[C@H](Cc2ccccc2)NC1=N [1968-67] | 1230 | 1120 | 1170 | 1170 | 828 | 830 | 830 | 833 | 230 | 177 | 203 | 203
CC(C)C[C@H]1CN([C@@H](CC(C)C)CN2C(=N)NC[C@@H]2Cc2ccccc2)C(=N)N1 [1968-11] | 13900 | 8930 | 11400 | 11400 | 26400 | 58600 | 58600 | 90900 | 2980 | 3040 | 3010 | 3010
Cc1cc(O)cc(C)c1C[C@H]1CN([C@@H](Cc2c(C)cc(O)cc2C)CN2C(=N)NC[C@@H]2Cc2c(C)cc(O)cc2C)C(=N)N1 [1968-64] | 2820 | 1590 | 2210 | 2210 | 508 | 579 | 579 | 650 | 58.6 | 88 | 73.3 | 73
CC(C)C[C@H]1CN([C@@H](Cc2ccc(O)cc2)CN2C(=N)NC[C@@H]2C)C(=N)N1 [1968-39] | 4090 | 7720 | 5900 | 5900 | 4150 | 3830 | 3830 | 3510 | 1240 | 1770 | 1500 | 1500
